Reference: US20230113037A1 (Bayer Aktiengesellschaft, priority 2019, published 2023)

Tests used:
AHR [1] = target: T1, AHR (Homo sapiens, UniProt P35869); assay: In vitro assay 1: antagonism in human cell line (AHR transactivation, firefly luciferase reporter, kynurenic acid prestimulated); assay type: cell-based; conditions: AHR Antagonism Human IC50 [M], firefly luciferase reporter
T1 construct: U87 MG glioblastoma cells (ATCC #HTB-14) endogenously expressing AHR; endogenous in cells; host or cells: U87 MG glioblastoma cells (ATCC #HTB-14)
T1 sequence (P35869 11-848): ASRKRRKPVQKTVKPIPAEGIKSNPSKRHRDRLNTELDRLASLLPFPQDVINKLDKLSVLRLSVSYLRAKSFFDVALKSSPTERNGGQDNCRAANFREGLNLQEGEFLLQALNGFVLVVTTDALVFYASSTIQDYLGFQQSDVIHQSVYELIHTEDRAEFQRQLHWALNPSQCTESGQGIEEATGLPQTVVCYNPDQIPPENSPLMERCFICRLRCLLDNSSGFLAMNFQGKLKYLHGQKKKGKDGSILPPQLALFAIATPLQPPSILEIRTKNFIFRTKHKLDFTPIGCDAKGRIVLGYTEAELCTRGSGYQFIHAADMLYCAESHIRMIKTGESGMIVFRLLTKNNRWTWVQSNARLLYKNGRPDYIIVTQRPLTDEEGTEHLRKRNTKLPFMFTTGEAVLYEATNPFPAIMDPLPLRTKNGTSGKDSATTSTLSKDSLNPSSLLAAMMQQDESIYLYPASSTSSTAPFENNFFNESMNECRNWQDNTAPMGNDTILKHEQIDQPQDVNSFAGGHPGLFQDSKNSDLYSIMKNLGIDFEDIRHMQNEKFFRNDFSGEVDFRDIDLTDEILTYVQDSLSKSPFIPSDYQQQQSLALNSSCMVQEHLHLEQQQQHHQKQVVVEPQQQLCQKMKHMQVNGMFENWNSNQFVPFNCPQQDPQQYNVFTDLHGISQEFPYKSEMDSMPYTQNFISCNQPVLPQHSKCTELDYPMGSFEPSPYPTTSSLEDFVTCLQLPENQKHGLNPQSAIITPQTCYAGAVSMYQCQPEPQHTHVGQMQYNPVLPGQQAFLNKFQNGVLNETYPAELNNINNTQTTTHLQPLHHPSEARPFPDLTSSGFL
Summary of the method: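 Antagonism is measured against kynurenic acid prestimulation in U87 MG glioblastoma cells carrying stable DRE-luciferase and Renilla reporters. Positive inhibition control: 150 μM kynurenic acid with 5 μM staurosporine. Values are normalized to controls; repeats are averaged or given as medians.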

AHR [2] = target: T2, AHR (Mus musculus, UniProt P30561); assay: In vitro assay 3: antagonism in mouse cell line (AHR transactivation, firefly luciferase reporter, kynurenic acid prestimulated); assay type: cell-based; conditions: Hepa 1c1c7 cells, 200 μM kynurenic acid, 20 hours, firefly luciferase reporter, read-out: AHR Antagonism Mouse IC50
T2 sequence (P30561 1-848 P471L/N533S/M589L): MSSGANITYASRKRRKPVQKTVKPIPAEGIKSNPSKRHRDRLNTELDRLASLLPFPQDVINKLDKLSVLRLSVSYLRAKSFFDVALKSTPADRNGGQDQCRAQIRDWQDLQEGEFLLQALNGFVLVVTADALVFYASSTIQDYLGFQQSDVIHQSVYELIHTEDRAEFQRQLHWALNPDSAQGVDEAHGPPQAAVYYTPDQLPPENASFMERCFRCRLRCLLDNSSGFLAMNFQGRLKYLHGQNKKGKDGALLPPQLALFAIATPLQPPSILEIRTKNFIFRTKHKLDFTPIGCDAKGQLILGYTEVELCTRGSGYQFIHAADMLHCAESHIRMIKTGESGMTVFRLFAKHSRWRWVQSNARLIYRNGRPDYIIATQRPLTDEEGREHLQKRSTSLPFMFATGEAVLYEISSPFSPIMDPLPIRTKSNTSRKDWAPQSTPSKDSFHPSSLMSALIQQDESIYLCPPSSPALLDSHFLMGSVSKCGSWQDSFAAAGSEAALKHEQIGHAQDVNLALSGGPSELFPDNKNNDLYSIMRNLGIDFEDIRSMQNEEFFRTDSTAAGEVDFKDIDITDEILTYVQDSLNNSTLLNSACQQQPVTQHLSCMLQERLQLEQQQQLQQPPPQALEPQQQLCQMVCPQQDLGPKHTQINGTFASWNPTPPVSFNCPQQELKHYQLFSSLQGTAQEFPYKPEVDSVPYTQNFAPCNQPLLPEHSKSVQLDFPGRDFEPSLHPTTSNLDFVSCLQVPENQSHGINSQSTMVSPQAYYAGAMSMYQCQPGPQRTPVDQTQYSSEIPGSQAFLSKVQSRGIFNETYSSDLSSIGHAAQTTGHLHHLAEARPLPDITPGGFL
Summary of the method: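 Antagonism read as reduced firefly luciferase signal (SteadyGlo) from a stably transfected AHR/DRE reporter in a mouse line prestimulated with kynurenic acid. Data normalized to controls, the full-inhibition control being cells without kynurenic acid; multiple determinations given as average or median values.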

SMILES	IC50 (AHR [1]) [M]	IC50 (AHR [2]) [nM]
CN1CCNC(=O)[C@H](Nc2nc3c(Br)cccc3c3nc(-c4cnn(C)c4)nn23)C1 [Example 994, (6R)-6-{[7-bromo-2-(1-methyl-1H-pyrazol-4-yl)[1,2,4]triazolo[1,5-c]quinazolin-5-yl]amino}-1-methyl-1,4-diazepan-5-one]	2.32e-08	25.6
COc1ccc(-c2nc3c4cccc(Br)c4nc(N[C@@H]4CN(C)CCNC4=O)n3n2)cc1 [Example 995, (6R)-6-{[7-bromo-2-(4-methoxyphenyl)[1,2,4]triazolo[1,5-c]quinazolin-5-yl]amino}-1-methyl-1,4-diazepan-5-one]	6.97e-10	2.11
COc1ccc(-c2nc3c4cccc(OCCC(C)(C)OC)c4nc(N[C@@H]4CCCCNC4=O)n3n2)cc1 [Example 996, (3R)-3-{[7-(3-methoxy-3-methylbutoxy)-2-(4-methoxyphenyl)[1,2,4]triazolo[1,5-c]quinazolin-5-yl]amino}azepan-2-one]	2.8e-07	78.1
COc1ccc(-c2nc3c4cccc(OCCC(C)(C)O)c4nc(N[C@@H]4CCCCNC4=O)n3n2)cc1 [Example 1000, (3R)-3-{[7-(3-hydroxy-3-methylbutoxy)-2-(4-methoxyphenyl)[1,2,4]triazolo[1,5-c]quinazolin-5-yl]amino}azepan-2-one]	9.07e-09	8.3
COc1ccc(-c2nc3c4cccc(N5CCCC5=O)c4nc(N[C@@H]4CCCCNC4=O)n3n2)cc1 [Example 1001, (3R)-3-{[2-(4-methoxyphenyl)-7-(2-oxopyrrolidin-1-yl)[1,2,4]triazolo[1,5-c]quinazolin-5-yl]amino}azepan-2-one]	3.54e-07	5040
COc1ccc(-c2nc3c4cccc(C5COC5)c4nc(N[C@@H]4CCCCNC4=O)n3n2)cc1 [Example 1002, (3R)-3-{[2-(4-methoxyphenyl)-7-(oxetan-3-yl)[1,2,4]triazolo[1,5-c]quinazolin-5-yl]amino}azepan-2-one]	1.26e-09	42
COCc1cccc2c1nc(N[C@@H]1CCCCNC1=O)n1nc(-c3cnn(C)c3)nc21 [Example 1004, (3R)-3-{[7-(methoxymethyl)-2-(1-methyl-1H-pyrazol-4-yl)[1,2,4]triazolo[1,5-c]quinazolin-5-yl]amino}azepan-2-one]	1.9e-08	266

Other lines, results leading:

IC50 (AHR [1]) [M]	IC50 (AHR [2]) [nM]	SMILES
8.11e-08	138	COc1ccc(-c2nc3c4cccc(OCC(C)(C)O)c4nc(N[C@@H]4CCCCNC4=O)n3n2)cc1 [Example 997, (3R)-3-{[7-(2-hydroxy-2-methylpropoxy)-2-(4-methoxyphenyl)[1,2,4]triazolo[1,5-c]quinazolin-5-yl]amino}azepan-2-one]
4.16e-07	279	COc1ccc(-c2nc3c4cccc(OC5CCC5)c4nc(N[C@@H]4CCCCNC4=O)n3n2)cc1 [Example 998, (3R)-3-{[7-(cyclobutyloxy)-2-(4-methoxyphenyl)[1,2,4]triazolo[1,5-c]quinazolin-5-yl]amino}azepan-2-one]
6.91e-09	4.27	COc1ccc(-c2nc3c4cccc(OC5CC5)c4nc(N[C@@H]4CCCCNC4=O)n3n2)cc1 [Example 999, (3R)-3-{[7-(cyclopropyloxy)-2-(4-methoxyphenyl)[1,2,4]triazolo[1,5-c]quinazolin-5-yl]amino}azepan-2-one]
9.15e-10	4.06	COCc1cccc2c1nc(N[C@@H]1CCCCNC1=O)n1nc(-c3ccc(OC)cc3)nc21 [Example 1003, (3R)-3-{[7-(methoxymethyl)-2-(4-methoxyphenyl)[1,2,4]triazolo[1,5-c]quinazolin-5-yl]amino}azepan-2-one]
